Measurements published in patent publication US20140039053A1, “THERAPEUTIC AGENT FOR DIASTOLIC CONGESTIVE HEART FAILURE” (Mochida Pharmaceutical Co., Ltd., priority 2011, published 2014).

Experiments:
[1] = system: diastolic congestive heart failure patients; assay: Echocardiographic evaluation of diastolic function in diastolic congestive heart failure patients, EPA-E-administered vs non-administered group (Example 2); assay type: in vivo, human
Description: Diastolic congestive heart failure patients were targeted and divided into an EPA-E-administered group and an EPA-E-non-administered group. The EPA-E-administered group received the oral administration of EPA-E (trade name: Epadel; manufactured by Mochida Pharmaceutical Co., Ltd.) at a daily dose of 1800 mg for 6 months. The EPA-E-non-administered group received neither EPA nor its derivative during the test period. Another hypotensive or antilipidemic agent was not administered to any of these groups during the test period. The diastolic function of each patient was evaluated by echocardiography before the start of the test and after the completion of the test (6 months later). The evaluation items used were 1) a ratio of a peak filling velocity of early diastolic transmitral flow (a peak filling velocity of mitral inflow during early diastole: E) to a peak filling velocity of atrial systolic transmitral flow (a peak filling velocity of mitral inflow during atrial contraction: A) (E/A ratio), 2) the time required for the peak filling velocity of mitral inflow during early diastole to reach zero (deceleration time: DT), 3) an early diastolic mitral annulus velocity (E), and 4) an E/E′ ratio. The degree of improvement in these indexes was confirmed for each case corresponding to 1) an E/A ratio<1.0, 2) DT>250 msec, 3) E′<8 cm/s, or 4) an E/E′ ratio>15 as an index for cardiac diastolic dysfunction. The rate of change was determined as an average of % change from the value (defined as 100) before the start to the value after 6 months in each case.

[2] = system: diastolic congestive heart failure patients; assay: as above; assay type: in vivo, human; settings: target cases E′ <8 cm/s (18 cases)
[3] = printed as reduction (improvement), average of % change per case, before start to 6 months, 1800 mg/day oral
[4] = printed as rise (improvement), average of % change per case, before start to 6 months, 1800 mg/day oral

CC/C=C\C/C=C\C/C=C\C/C=C\C/C=C\CCCC(=O)OCC [EPA-E, icosapentaenoic acid ethyl ester]
DT, rate of change [1, 3]: 10.9% reduction | E/E′ ratio, rate of change [1, 3]: 27.4% reduction | E/A ratio, rate of change [1, 4]: 3.7% rise | E′, rate of change [1, 4]: 2.3% rise | DT (deceleration time), mean after 6 months ([1]; target cases DT >250 msec (6 cases), EPA-E 1800 mg/day oral, 6 months): 241.7 ms | DT (deceleration time), mean before start ([1]; target cases DT >250 msec (6 cases), baseline before EPA-E 1800 mg/day oral): 271.3 ms | E/A ratio, mean after 6 months ([1]; target cases E/A ratio <1.0 (14 cases), EPA-E 1800 mg/day oral, 6 months): 0.692 | E/A ratio, mean before start ([1]; target cases E/A ratio <1.0 (14 cases), baseline before EPA-E 1800 mg/day oral): 0.669 | E/E′ ratio, mean after 6 months ([1]; target cases E/E′ ratio >15 (4 cases), EPA-E 1800 mg/day oral, 6 months): 13.14 | E/E′ ratio, mean before start ([1]; target cases E/E′ ratio >15 (4 cases), baseline before EPA-E 1800 mg/day oral): 18.09 | E′ (early diastolic mitral annular velocity), mean after 6 months ([2]; EPA-E 1800 mg/day oral, 6 months): 4.539 cm/s | E′ (early diastolic mitral annular velocity), mean before start ([2]; baseline before EPA-E 1800 mg/day oral): 4.483 cm/s
